In patent US20240398764A1, “METHODS OF TREATING DISEASES ASSOCIATED WITH SENESCENT CELL ACCUMULATION” (University of Florida Research Foundation, Incorporated, priority 2021, published 2024):

What was measured:
[1] = target: T1, Bcl-2 (Homo sapiens, UniProt P10415); test: Immunoblot of Bcl-2 degradation in HEK293T cells; assay type: cell-based; design: endogenous in cells; details: different concentrations for 16 h, or 1 μM for various time points
Method: FIG. 1A depicts immunoblots showing degradation of Bcl-xl and Bcl-2 in HEK293T cells treated with various concentrations of 753b for 16 hours. FIG. 1B depicts immunoblots showing degradation of Bcl-xl and Bcl-2 in HEK293T cells treated with 1 μM 753b for various durations. 3-actin was used as a loading control.
The potency of 753b in degrading Bcl-xl/2 was evaluated in 293T cells by immunoblots after the cells were treated with different concentrations of 753b for 16 h (FIG. 1A) or after the cells were treated with 1 μM 753b for various time points as indicated (FIG. 1B). Representative immunoblots are shown, and β-actin was used as a loading control.

[2] = target: T2, Bcl-xl (Homo sapiens, UniProt Q07817); test: Immunoblot of Bcl-xl degradation in WI-38 fibroblast cells (Non-SnCs and IR-SnCs); assay type: cell-based; design: degradation of Bcl-xl and Bcl-2 in non-senescent WI-38 fibroblast cells (Non-SnCs) treated with varying concentrations of 753b; endogenous in cells; host or cells: WI-38 fibroblasts (non-senescent and ionizing-radiation-induced senescent); details: different concentrations, 16 h, dose-dependent
Description: (§1) FIG. 2A depicts immunoblots showing degradation of Bcl-xl and Bcl-2 in non-senescent WI-38 fibroblast cells (Non-SnCs) treated with varying concentrations of 753b. 3-actin was used as a loading control. FIG. 2B depicts viability of Non-SnCs treated with varying concentrations of 753b or ABT263. FIG. 2C depicts immunoblots showing degradation of Bcl-xl and Bcl-2 in ionizing radiation-induced senescent WI-38 fibroblast cells (IR-SnCs) treated with varying concentrations of 753b. 3-actin was used as a loading control. FIG. 2D depicts viability of IR-SnCs treated with varying concentrations of 753b or ABT263. FIG. 2E depicts immunoblots showing degradation of Bcl-xl and Bcl-2 in human platelets treated with varying concentrations of 753b. FIG. 2F depicts viability of human platelets treated with varying concentrations of 753b or ABT263.
(§2) The potency of 753b in degrading Bcl-xl/2 was evaluated by immunoblots after the cells or platelets were treated with different concentrations of 753b for 16 h ([…]). 753b is more cytotoxic to IR-SnCs but less toxic to Non-SnCs and platelets. The viability of Non-SnCs, IR-SnCs and platelets was measured 72 hr (Non-SnCs and IR-SnCs) and 48 hr (platelets) after they were incubated with increasing concentrations of 753b or ABT263 compared to cells/platelets with vehicle.

[3] = test system: IR-induced senescent renal epithelial cells (IR-SnC REC); test: Viability of IR-SnC REC; assay type: cell-based; details: 72 hr incubation; vs ABT263
Method: (§3) FIGS. 3A to 3B depicts viability of non-SnC human umbilical vein endothelial cells (HUVEC) and IR-induced SnC HUVEC treated with varying concentrations of ABT263 (FIG. 3A) or 753b (FIG. 3B). FIGS. 3C to 3D depict viability of non-SnC renal epithelial cells (REC), IR-induced SnC REC, and replicative senescent REC treated with varying concentrations of ABT263 (FIG. 3C) or 753b (FIG. 3D).
(§4) The viability of Non-SnC HUVEC, Non-SnC REC, IR-SnC HUVEC, IR-SnC REC, and Rep-SnC REC was measured 72 hr after they were incubated with increasing concentrations of 753b or ABT263 compared to cells/platelets with vehicle.

[4] = Hepatic fat accumulation in the STAM model (oil red staining, hepatic triglyceride); assay type: in vivo, C57BL6 mice; details: STZ/HFD mice; 5 mg/kg twice a week IP; postnatal day 90
Method: Scale bar: […]. FIG. 7B depicts percentage of oil red^+ area/field of the images depicted in FIG. 7A. Values represented means±SD. *p<0.05. […] Values represented means±SD. *p<0.05.
Experimental design: C57BL6 mice were injected with Streptozotocin (STZ) at postnatal day 2 to induce diabetes and then fed with HFD from postnatal day 30 till the end of the experiments (FIG. 5). Half of the mice started receiving vehicle and the others receiving 753b (5 mg/kg) treatment on postnatal day 45 twice a week by IP injection till the end of the experiments. A group of the mice were euthanized at postnatal day 90 (or day 45 after the initiation of the treatment) for analysis of senescent cell accumulation and steatosis. Another group of the mice were euthanized at postnatal day 150 (or day 105 after the initiation of the treatment) for analysis of liver fibrosis and cancer.
753b administration represses hepatic fat accumulation in the STAM model. The liver tissues were collected from mice at postnatal day 90 (p90 or 45 days after treatment) for the analyses. […] Quantification of oil red stained images was performed from 5 livers per group (FIG. 7B). […] Quantification was performed from 5 livers per group and was expressed as means±SD.

[5] = target: T1, Bcl-2; test: Immunoblot of Bcl-2 degradation in WI-38 fibroblast cells (Non-SnCs and IR-SnCs); assay type: cell-based; design: degradation of Bcl-xl and Bcl-2 in non-senescent WI-38 fibroblast cells (Non-SnCs) treated with varying concentrations of 753b; endogenous in cells; host or cells: WI-38 fibroblasts (non-senescent and ionizing-radiation-induced senescent); details: different concentrations, 16 h, dose-dependent
Description: as §1, §2

[6] = test system: ionizing radiation (IR) induced senescent WI-38 fibroblast cells (IR-SnCs); test: Viability of IR-induced senescent WI-38 fibroblast cells; assay type: cell-based; details: 72 hr incubation; vs ABT263
Description: as §1, §2

[7] = test system: IR-induced senescent human umbilical vein endothelial cells (IR-SnC HUVEC); test: Viability of IR-SnC HUVEC; assay type: cell-based; details: 72 hr incubation; vs ABT263
Method: as §3, §4

[8] = target: T2, Bcl-xl; test: Immunoblot of Bcl-xl degradation in human platelets; assay type: cell-based; design: endogenous in cells; host or cells: human platelets; details: different concentrations, 16 h
Description: as §1, §2

[9] = IR-induced senescent WI-38 fibroblast cells
[10] = non-senescent WI-38 fibroblast cells

T1 sequence (P10415 whole entry): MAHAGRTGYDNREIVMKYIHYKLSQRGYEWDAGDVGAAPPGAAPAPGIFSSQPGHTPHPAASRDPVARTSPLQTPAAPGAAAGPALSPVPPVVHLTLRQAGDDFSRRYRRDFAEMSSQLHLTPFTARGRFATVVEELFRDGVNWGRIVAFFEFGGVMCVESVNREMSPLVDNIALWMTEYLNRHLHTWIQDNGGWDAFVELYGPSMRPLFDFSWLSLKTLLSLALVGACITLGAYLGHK
T2 sequence (Q07817 whole entry): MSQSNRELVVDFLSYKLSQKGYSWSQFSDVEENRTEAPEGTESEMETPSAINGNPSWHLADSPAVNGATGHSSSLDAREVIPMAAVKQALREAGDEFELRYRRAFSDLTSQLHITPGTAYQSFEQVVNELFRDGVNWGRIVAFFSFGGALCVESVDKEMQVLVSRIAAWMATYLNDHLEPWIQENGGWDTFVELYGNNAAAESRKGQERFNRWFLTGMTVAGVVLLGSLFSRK

## Cc1ncsc1-c1ccc([C@H](C)NC(=O)[C@@H]2C[C@@H](O)CN2C(=O)[C@@H](NC(=O)CCCCCCC(=O)N2CCN(C[C@]3(C)CCC(c4ccc(Cl)cc4)=C(CN4CCN(c5ccc(C(=O)NS(=O)(=O)c6ccc(N[C@H](CCN7CCOCC7)CSc7ccccc7)c(S(=O)(=O)C(F)(F)F)c6)cc5)CC4)C3)CC2)C(C)(C)C)cc1 [Compound 753b]
[1]
  Bcl-2 degradation: degrades Bcl-xl and Bcl-2 in a dose- and time-dependent manner
[2]; [9]
  Bcl-xl degradation in IR-SnCs: degrades Bcl-xl and Bcl-2 in Non-SnCs and IR-SnCs
[2]; [10]
  Bcl-xl degradation in Non-SnCs: degrades Bcl-xl and Bcl-2 in Non-SnCs and IR-SnCs
[3]
  Senolytic potency (viability) against IR-SnC REC compared with ABT263: more potent senolytic agent
[4]
  Hepatic fat accumulation (oil red staining): inhibited hepatic fat accumulation
  Hepatic triglyceride level: decreased levels of hepatic triglyceride
[5]; [9]
  Bcl-2 degradation in IR-SnCs: degrades Bcl-xl and Bcl-2 in Non-SnCs and IR-SnCs
[5]; [10]
  Bcl-2 degradation in Non-SnCs: degrades Bcl-xl and Bcl-2 in Non-SnCs and IR-SnCs
[6]
  Senolytic potency (viability) against IR-SnCs compared with ABT263: more potent senolytic agent
[7]
  Senolytic potency (viability) against IR-SnC HUVEC compared with ABT263: more potent senolytic agent
[8]
  Bcl-xl degradation in human platelets: not in human platelets
